In US10508086B2 (CANCER RESEARCH TECHNOLOGY LIMITED, priority 2014, dated 2019):

What follows are compounds tested against Human Full Length PARG (Homo sapiens (Human), UniProt Q86W56) (assay: PARG in vitro enzyme assay (TR-FRET)). Conditions: read-out: PARG_EC50_ENZYME.
Assay type: biochemical
Experimental: PARG In vitro assays were conducted in a total volume of 15 ul in a standard 384 well format. 5 ul of Human Full Length PARG (Produced internally by Astra Zeneca), used at a final reaction concentration of […], was added to 5 ul of Ribosylated PARP substrate (also produced internally by Astra Zeneca) at final reaction concentration of 4.5 nM in assay buffer (50 mM Tris pH7.4, 0.1 mg/ml BSA, 3 mM EDTA, 0.4 mM EGTA, 1 mM DTT, 0.01% Tween 20, 50 mM KCl). The reaction was incubated at room temperature for 10 minutes and then 5 ul detection reagent was added. Detection Reagent consists of 42 nM MAb Anti-6HIS XL665 (CisBio: 61 HISXLB) and 2.25 nM Streptavidin Europium Cryptate (CisBio: 610SAKLB), both at 3× working stock concentrations (final concentrations of 14 nM and 0.75 nM respectively), in a detection buffer of 50 mM Tris pH7.4, BSA at 0.1 mg/ml and KF at 100 mM. Following incubation at room temperature for 60 minutes in the dark, TR-FRET signal was measured at Ex 340 and Em 665 and Em 620. A ratio was calculated as Em665/EM620×104 for each well and used to calculate percent inhibition for test compounds.

Sequence of Human Full Length PARG (Q86W56 whole entry): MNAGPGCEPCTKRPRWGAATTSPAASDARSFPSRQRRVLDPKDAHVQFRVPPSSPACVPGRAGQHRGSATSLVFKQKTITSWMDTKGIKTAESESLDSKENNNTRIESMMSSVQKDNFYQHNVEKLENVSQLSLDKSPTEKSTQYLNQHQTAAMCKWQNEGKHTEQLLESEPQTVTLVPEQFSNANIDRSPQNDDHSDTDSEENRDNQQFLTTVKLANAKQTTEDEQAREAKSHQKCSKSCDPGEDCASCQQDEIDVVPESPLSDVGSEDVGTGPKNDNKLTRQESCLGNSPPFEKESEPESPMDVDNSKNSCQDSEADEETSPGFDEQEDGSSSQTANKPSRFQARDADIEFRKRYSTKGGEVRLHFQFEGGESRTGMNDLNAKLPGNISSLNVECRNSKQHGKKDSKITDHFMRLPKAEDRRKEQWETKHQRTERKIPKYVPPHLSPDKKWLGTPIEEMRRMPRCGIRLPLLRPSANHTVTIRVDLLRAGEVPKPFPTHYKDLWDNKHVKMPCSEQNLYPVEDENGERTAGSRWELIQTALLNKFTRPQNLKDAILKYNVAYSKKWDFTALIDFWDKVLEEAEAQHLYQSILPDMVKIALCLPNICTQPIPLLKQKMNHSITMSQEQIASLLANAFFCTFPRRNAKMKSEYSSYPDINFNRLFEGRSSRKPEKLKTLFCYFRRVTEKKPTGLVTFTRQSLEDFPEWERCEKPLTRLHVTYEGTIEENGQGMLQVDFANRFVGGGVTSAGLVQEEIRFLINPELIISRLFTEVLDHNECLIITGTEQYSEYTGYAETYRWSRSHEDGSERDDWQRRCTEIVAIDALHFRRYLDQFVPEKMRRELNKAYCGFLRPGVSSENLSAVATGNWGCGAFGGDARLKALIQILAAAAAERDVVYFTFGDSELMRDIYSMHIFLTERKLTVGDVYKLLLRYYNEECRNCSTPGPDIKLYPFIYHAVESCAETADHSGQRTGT

First: Cn1c(=O)n(Cc2c(Cl)cccc2Cl)c2ccc(S(=O)(=O)NC3(C)CC3)cc21 [Example 1]
Second: Cn1c(=O)n(Cc2c(F)cccc2F)c2ccc(S(=O)(=O)NC3(C)CC3)cc21 [Example 47]
The EC50 of the first is 1.6-fold higher: 9.41 µM for the first, 5.72 µM for the second.

Cn1c(=O)n(CC2CC2)c2ccc(S(=O)(=O)NC3(C)CC3)cc21 [Example 2] and Cn1c(=O)n(CC2CCC2)c2ccc(S(=O)(=O)NC3(C)CC3)cc21 [Example 11] are within 1.5-fold of each other in EC50: 5 µM for the first, 4.67 µM for the second.

Cn1c(=O)n(Cc2ccccc2)c2ccc(S(=O)(=O)NC3(C)CC3)cc21 [Example 3] and Cn1c(=O)n(Cc2cccc(Cl)c2)c2ccc(S(=O)(=O)NC3(C)CC3)cc21 [Example 38] are within 1.5-fold of each other in EC50: 8.28 µM for the first, 5.71 µM for the second.

First: CC1(NS(=O)(=O)c2ccc3c(c2)n(-c2ccccc2)c(=O)n3CC2CC2)CC1 [Example 4]
Second: Cn1c(=O)n(-c2ccccc2)c2ccc(S(=O)(=O)NC3(C)CC3)cc21 [Example 57]
The EC50 of the first is 1.9-fold lower: 2.91 µM for the first, 5.63 µM for the second.

Cn1c(=O)n(Cc2cccnc2)c2ccc(S(=O)(=O)NC3(C)CC3)cc21 [Example 5] and Cn1c(=O)n(Cc2ccncc2)c2ccc(S(=O)(=O)NC3(C)CC3)cc21 [Example 13] are within 1.5-fold of each other in EC50: 6.76 µM for the first, 7.12 µM for the second.

Compared with Cn1c(=O)n(CC2CC2(F)F)c2ccc(S(=O)(=O)NC3(C)CC3)cc21 (stereo not drawn) [Example 6], CC1CC1Cn1c(=O)n(C)c2cc(S(=O)(=O)NC3(C)CC3)ccc21 (stereo not drawn) [Example 8] is 1.8-fold lower in EC50: 8.32 µM for the first, 4.51 µM for the second. The second is the more potent here.

CC(C)Cn1c(=O)n(C)c2cc(S(=O)(=O)NC3(C)CC3)ccc21 [Example 7] and Cn1c(=O)n(CC(C)(C)C)c2ccc(S(=O)(=O)NC3(C)CC3)cc21 [Example 15] are within 1.5-fold of each other in EC50: 9.79 µM for the first, 6.59 µM for the second.

Going from Cn1c(=O)n(CC2(C)CC2)c2ccc(S(=O)(=O)NC3(C)CC3)cc21 [Example 9] to Cn1c(=O)n(CC2(C)COC2)c2ccc(S(=O)(=O)NC3(C)CC3)cc21 [Example 10], the EC50 rises from 4.04 µM to 8.42 µM (2.1-fold).

Compared with Cn1c(=O)n(CC2CCCCC2)c2ccc(S(=O)(=O)NC3(C)CC3)cc21 [Example 12], Cn1c(=O)n(CC2CCCC2)c2ccc(S(=O)(=O)NC3(C)CC3)cc21 [Example 16] is 2.4-fold lower in EC50: 8.29 µM for the first, 3.39 µM for the second. The second is the more potent here.

Compared with C#CCn1c(=O)n(C)c2cc(S(=O)(=O)NC3(C)CC3)ccc21 [Example 17], C=CCn1c(=O)n(C)c2cc(S(=O)(=O)NC3(C)CC3)ccc21 [Example 18] is 1.6-fold higher in EC50: 4.78 µM for the first, 7.56 µM for the second. The first is the more potent here.

Compared with Cn1c(=O)n(CCC2CC2)c2ccc(S(=O)(=O)NC3(C)CC3)cc21 [Example 19], CC(=O)OCCn1c(=O)n(C)c2cc(S(=O)(=O)NC3(C)CC3)ccc21 [Example 22] is 1.7-fold higher in EC50: 5.36 µM for the first, 9.18 µM for the second.

Going from Cc1ccc(Cn2c(=O)n(C)c3cc(S(=O)(=O)NC4(C)CC4)ccc32)o1 [Example 20] to Cn1c(=O)n(Cc2ccc([N+](=O)[O-])o2)c2ccc(S(=O)(=O)NC3(C)CC3)cc21 [Example 62], the EC50 rises from 3.5 µM to 5.9 µM (1.7-fold). The first is the more potent here.

Compared with CC1(NS(=O)(=O)c2ccc3c(c2)N(C(=O)CN2CCNC2=O)CC3)CC1 [Example 21, N-(1-Methylcyclopropyl)-1-[2-(2-oxoimidazolidin-1-yl)acetyl]indoline-6-sulfonamide], CN1CCN(CC(=O)N2CCc3ccc(S(=O)(=O)NC4(C)CC4)cc32)C1=O [Example 25, N-(1-Methylcyclopropyl)-1-[2-(3-methyl-2-oxo-imidazolidin-1-yl)acetyl]indoline-6-sulfonamide] is 1.7-fold higher in EC50: 5.23 µM for the first, 8.92 µM for the second. The first is the more potent here.

Cn1ccc(Cn2c(=O)n(C)c3cc(S(=O)(=O)NC4(C)CC4)ccc32)n1 [Example 23] and Cn1nccc1Cn1c(=O)n(C)c2cc(S(=O)(=O)NC3(C)CC3)ccc21 [Example 64] are within 1.5-fold of each other in EC50: 8.83 µM for the first, 8.5 µM for the second.

Going from CC(=O)n1c(=O)n(C)c2ccc(S(=O)(=O)NC3(C)CC3)cc21 [Example 24] to CNC(=O)n1c(=O)n(C)c2ccc(S(=O)(=O)NC3(C)CC3)cc21 [Example 55], the EC50 rises from 2.8 µM to 7.05 µM (2.5-fold). The first is the more potent here.

Cn1c(=O)n(-c2ccsc2)c2cc(S(=O)(=O)NC3(C)CC3)ccc21 [Example 26] and Cn1c(=O)n(-c2ccco2)c2cc(S(=O)(=O)NC3(C)CC3)ccc21 [Example 52] are within 1.5-fold of each other in EC50: 6.99 µM for the first, 5.16 µM for the second.

Compared with Cn1c(=O)n(C(=O)c2ccccc2)c2cc(S(=O)(=O)NC3(C)CC3)ccc21 [Example 27], Cc1cccc(C(=O)n2c(=O)n(C)c3ccc(S(=O)(=O)NC4(C)CC4)cc32)c1 [Example 30] is 10-fold higher in EC50: 0.925 µM for the first, 9.57 µM for the second. The first is the more potent here.

Going from Cn1c(=O)n(C(=O)C2CCCCC2)c2cc(S(=O)(=O)NC3(C)CC3)ccc21 [Example 28] to CCNC(=O)n1c(=O)n(C)c2ccc(S(=O)(=O)NC3(C)CC3)cc21 [Example 32], the EC50 rises from 0.352 µM to 6.86 µM (19-fold).

Cc1ccc(C(=O)n2c(=O)n(C)c3ccc(S(=O)(=O)NC4(C)CC4)cc32)cc1 [Example 29] and Cc1ccccc1C(=O)n1c(=O)n(C)c2ccc(S(=O)(=O)NC3(C)CC3)cc21 [Example 31] are within 1.5-fold of each other in EC50: 4.46 µM for the first, 4.91 µM for the second.

Cc1cccc(Cn2c(=O)n(C)c3cc(S(=O)(=O)NC4(C)CC4)ccc32)c1 [Example 33] and Cn1c(=O)n(Cc2cccc(F)c2)c2ccc(S(=O)(=O)NC3(C)CC3)cc21 [Example 41] are within 1.5-fold of each other in EC50: 6.31 µM for the first, 5.77 µM for the second.

Compared with Cc1ccc(Cn2c(=O)n(C)c3cc(S(=O)(=O)NC4(C)CC4)ccc32)cc1 [Example 34], Cn1c(=O)n(Cc2ccc(Cl)cc2)c2ccc(S(=O)(=O)NC3(C)CC3)cc21 [Example 39] is 1.7-fold lower in EC50: 6.21 µM for the first, 3.74 µM for the second. The second is the more potent here.

COc1ccccc1Cn1c(=O)n(C)c2cc(S(=O)(=O)NC3(C)CC3)ccc21 [Example 35] and Cn1c(=O)n(Cc2ccccc2F)c2ccc(S(=O)(=O)NC3(C)CC3)cc21 [Example 40] are within 1.5-fold of each other in EC50: 7.69 µM for the first, 6.3 µM for the second.

Compared with COc1cccc(Cn2c(=O)n(C)c3cc(S(=O)(=O)NC4(C)CC4)ccc32)c1 [Example 36], COc1ccc(Cn2c(=O)n(C)c3cc(S(=O)(=O)NC4(C)CC4)ccc32)cc1 [Example 37] is 2-fold lower in EC50: 6.17 µM for the first, 3.15 µM for the second.

Cn1c(=O)n(Cc2ccc(F)cc2)c2ccc(S(=O)(=O)NC3(C)CC3)cc21 [Example 42] and Cn1c(=O)n(Cc2ccc(C#N)cc2)c2ccc(S(=O)(=O)NC3(C)CC3)cc21 [Example 45] are within 1.5-fold of each other in EC50: 2.35 µM for the first, 3.2 µM for the second.

Compared with Cn1c(=O)n(Cc2ccccc2C#N)c2ccc(S(=O)(=O)NC3(C)CC3)cc21 [Example 43], Cn1c(=O)n(Cc2ccccc2C(F)(F)F)c2ccc(S(=O)(=O)NC3(C)CC3)cc21 [Example 46] is 1.9-fold higher in EC50: 5.25 µM for the first, 9.75 µM for the second. The first is the more potent here.

Cn1c(=O)n(Cc2cccc(C#N)c2)c2ccc(S(=O)(=O)NC3(C)CC3)cc21 [Example 44] and Cn1c(=O)n(Cc2ccc(C#N)c(F)c2)c2ccc(S(=O)(=O)NC3(C)CC3)cc21 [Example 58] are within 1.5-fold of each other in EC50: 3.35 µM for the first, 4.65 µM for the second.

First: Cn1c(=O)n(Cc2cc(Cl)cc(Cl)c2)c2ccc(S(=O)(=O)NC3(C)CC3)cc21 [Example 48]
Second: Cc1cc(C)cc(Cn2c(=O)n(C)c3cc(S(=O)(=O)NC4(C)CC4)ccc32)c1 [Example 49]
The EC50 of the first is 1.5-fold higher: 7.83 µM for the first, 5.07 µM for the second. The second is the more potent here.

COc1cc(Cn2c(=O)n(C)c3cc(S(=O)(=O)NC4(C)CC4)ccc32)cc(OC)c1 [Example 50] and Cn1c(=O)n(Cc2cc(F)cc(F)c2)c2ccc(S(=O)(=O)NC3(C)CC3)cc21 [Example 51] are within 1.5-fold of each other in EC50: 4.91 µM for the first, 5.26 µM for the second.

Compared with Cn1c(=O)n(-c2nccs2)c2cc(S(=O)(=O)NC3(C)CC3)ccc21 [Example 53], Cc1nnc(-n2c(=O)n(C)c3ccc(S(=O)(=O)NC4(C)CC4)cc32)s1 [Example 68] is 3.2-fold lower in EC50: 2.86 µM for the first, 0.902 µM for the second. The second is the more potent here.

Compared with Cn1c(=O)n(-c2ccc(C=O)s2)c2cc(S(=O)(=O)NC3(C)CC3)ccc21 [Example 54], Cn1c(=O)n(-c2ccc(/C=C/C(=O)O)o2)c2cc(S(=O)(=O)NC3(C)CC3)ccc21 [Example 67, (E)-3-[5-[3-Methyl-6-[(1-methylcyclopropyl)sulfamoyl]-2-oxo-benzimidazol-1-yl]-2-furyl]prop-2-enoic acid] is 2-fold lower in EC50: 9.07 µM for the first, 4.45 µM for the second. The second is the more potent here.

Going from Cn1c(=O)n(C)c2cc(S(=O)(=O)NC3(C)CC3)c(F)cc21 [Example 56, 6-Fluoro-1,3-dimethyl-N-(1-methylcyclopropyl)-2-oxo-benzimidazole-5-sulfonamide] to CCOC(=O)n1c(=O)n(C)c2ccc(S(=O)(=O)NC3(C)CC3)cc21 [Example 66], the EC50 falls from 8.3 µM to 1.35 µM (6.1-fold). The second is the more potent here.

First: Cn1c(=O)n(Cc2ccc(C(N)=O)cc2)c2ccc(S(=O)(=O)NC3(C)CC3)cc21 [Example 59]
Second: Cn1c(=O)n(Cc2cccc(C(N)=O)c2)c2ccc(S(=O)(=O)NC3(C)CC3)cc21 [Example 61]
The EC50 of the first is 2.3-fold lower: 2.66 µM for the first, 6.06 µM for the second. The first is the more potent here.

First: CNC(=O)c1noc(Cn2c(=O)n(C)c3cc(S(=O)(=O)NC4(C)CC4)ccc32)n1 [Example 60]
Second: Cc1ncc(Cn2c(=O)n(C)c3cc(S(=O)(=O)NC4(C)CC4)ccc32)s1 [Example 65]
The EC50 of the first is 1.6-fold lower: 5.96 µM for the first, 9.8 µM for the second.

First: CC(=O)Nc1ccc(Cn2c(=O)n(C)c3cc(S(=O)(=O)NC4(C)CC4)ccc32)cc1 [Example 63]
Second: Cn1c(=O)n(-c2ncc(CCC(=O)O)s2)c2cc(S(=O)(=O)NC3(C)CC3)ccc21 [Example 70, 3-[2-[3-Methyl-6-[(1-methylcyclopropyl)sulfamoyl]-2-oxo-benzimidazol-1-yl]thiazol-5-yl]propanoic acid]
The EC50 of the first is 5.2-fold higher: 4.17 µM for the first, 0.804 µM for the second.

For Cn1c(=O)n(-c2ncc(/C=C/C(=O)O)s2)c2cc(S(=O)(=O)NC3(C)CC3)ccc21 [Example 69, (E)-3-[2-[3-methyl-6-[(1-methylcyclopropyl)sulfamoyl]-2-oxo-benzimidazol-1-yl]thiazol-5-yl]prop-2-enoic acid], the EC50 was 3.21 µM.
